# Measurements from US20150284360A1, “AMIDE DERIVATIVES OF ANILINE-RELATED COMPOUNDS AND COMPOSITIONS THEREOF” (C&C BIOPHARMA, LLC, priority 2014, published 2015).
# Assays:
# [1] = Solubility of a compound in water; format: physicochemical; conditions: compound added until saturated
# Method: Solubility of a compound was obtained by adding the compound into water of known volume (e.g. 1 mL) until saturated, measuring the amount of the compound added, and obtaining the solubility of the compound in water (mg/mL) (Table 9).
# [2] = In vitro conversion of prodrug Lys-CC30.2HCl to parent drug CC30 in rat plasma (HPLC-MS); format: in vitro ADME; conditions: formed from Lys-CC30•2HCl in rat plasma
# Method: Lys-CC30.2HCl (2.53 mg) was dissolved in 200 μl of water to obtain an aqueous solution concentration of 12.6 mg/ml. 4 μl of the Lys-CC30.2HCl solution was thoroughly mixed with 100 μl of rat plasma. This mixture was divided into 10 aliquots (10 μl) placed in 1.5 ml tubes. One tube was placed on ice and was used as the 0 time point. The other 9 samples were placed in an incubator at 37° C. At 5, 10, 30, 60, 120, and 240 minutes, a tube was taken out from incubation and placed on ice to stop or slow down the reaction. The samples were diluted with water (50-fold), mixed, and pelleted by centrifugation at 4° C. and 14,000 rpm for 5 min. The supernatant (˜200-300 μl) was used for HPLC-MS analysis. The % conversion was calculated by dividing the peak area of the parent drug by the peak area of the prodrug at time 0, and then multiplying by 100 (Table 10).
# After 60 minutes of incubation, almost half (44.7%) of the Lys-CC30.2HCl prodrug converted to CC30 (Table 10).
# [3] = In vivo conversion of prodrug Lys-CC30.2HCl to parent drug CC30 in a rat after intravenous administration (plasma, HPLC-MS); set-up: species or system Sprague-Dawley rat; conditions: for HPLC-MS Peak Area of Parent drug, CC30 in the rat: rat plasma after Lys-CC30.2HCl 2 mg/kg intravenous
# Method: A Male Sprague-Dawley rat weighing 200-220 g was used to study the pharmacokinetics of the prodrug Lys-CC30.2HCl. Food was prohibited for 12 hours before the experiment, but water was freely available. Blood samples (0.2 ml) were collected through orbital venous plexus blood into heparinized 1.5 ml polyethene tubes at 0, 2, 5, 10, 15, 20, 30, 45 and 60 minute time points after the intravenous administration of Lys-CC30.2HCl (2 mg/kg). The samples were immediately centrifuged at 3000 g for 10 minutes. The plasma obtained (100 μl) was stored at −20° C. until analyzed. Plasma Lys-CC30.2HCl and parent drug CC30 concentrations in the collected blood samples were analyzed by HPLC-MS.
# The parent drug was detected in the rat for at least 60 minutes, whereas the prodrug was no longer detected after 20 minutes (Table 11)(FIG. 10B).
# [4] = Cyclization in simulated gastric fluid (SGF), acidic condition; format: physicochemical; conditions: SGF pH=1.3 with pepsin, 37° C., 4 hours
# Method: Simulated gastric fluid (SGF) was prepared by thoroughly mixing diluted hydrochloric acid (16.4 ml), water (800 ml), and 10 g of pepsin together, and then bring the volume up to 1000 ml with water (pH=1.3). Diluted hydrochloric acid was prepared by mixing 234 ml of concentrated hydrochloric acid with water to a final volume of 1000 ml. Lys-CC30.2HCl (2.53 mg) or CC30 were separately dissolved in 200 μl of water to obtain an aqueous solution concentration of 12.6 mg/ml. 4 μl of the Lys-CC30.2HCl solution and the CC30 solution were thoroughly mixed with 1 ml of SGF in separate tubes. The mixtures were placed in an incubator at 37° C. for 4 hours. The samples were diluted with water 50-fold, mixed, and pelleted by centrifugation at 4° C. and 14,000 rpm for 5 min. The supernatants (˜200-300 μl) were used for HPLC-MS analysis.
Structure (SMILES),Solubility in Water [1],also measured
Cl.NCC(=O)Nc1ccccc1NC(=O)CCCCCC(=O)Nc1ccccc1 [Gly-PAOA•HCl],11 mg/mL,–
Cl.NC(=O)C[C@H](N)C(=O)Nc1ccccc1NC(=O)CCCCCC(=O)Nc1cccc(Br)c1 [Asn-CC30•HCl],30 mg/mL,–
"Nc1ccccc1NC(=O)c1ccc(CNC(=O)OCc2cccnc2)cc1 [MS-275, Entinostat, reference compound]",0.016 mg/mL,–
C[C@@H](O)[C@H](N)C(=O)Nc1ccccc1NC(=O)CCCCCC(=O)Nc1cccc(Br)c1.Cl [Thr-CC30•HCl],1350 mg/mL,–
O=C([O-])CCC(=O)Nc1ccccc1NC(=O)CCCCCC(=O)Nc1cccc(Br)c1.[Na+] [CC30-Suc-ONa],2 mg/mL,–
Cl.NC(CO)C(=O)Nc1ccccc1NC(=O)c1ccc(CNC(=O)OCc2cccnc2)cc1 (centres unmarked) [Ser-MS-275•HCl],>100 mg/mL,–
Cl.Cl.NCCCC[C@H](N)C(=O)Nc1ccccc1NC(=O)c1ccc(CNC(=O)OCc2cccnc2)cc1 [Lys-MS-275•2HCl],>100 mg/mL,–
C[C@@H](O)[C@H](N)C(=O)Nc1ccccc1NC(=O)c1ccc(CNc2nccc(-c3cccnc3)n2)cc1.Cl [Thr-MGCD0103•HCl],>100 mg/mL,–
Cl.Cl.NCCC[C@H](N)C(=O)Nc1ccccc1NC(=O)CCCCCC(=O)Nc1cccc(Br)c1 [Orn-CC30•HCl],720 mg/mL,–
CC(C)C(N)C(=O)Nc1ccccc1NC(=O)c1ccc(CNc2nccc(-c3cccnc3)n2)cc1.Cl (centres unmarked) [Val-MGCD0103•HCl],>100 mg/mL,–
CC(C)[C@H](N)C(=O)Nc1ccccc1NC(=O)CCCCCC(=O)Nc1cccc(Br)c1.Cl [Val-CC30•HCl],170 mg/mL,–
Cl.NC(CO)C(=O)Nc1ccccc1NC(=O)c1ccc(CNc2nccc(-c3cccnc3)n2)cc1 (centres unmarked) [Ser-MGCD0103•HCl],>100 mg/mL,–
Cl.N[C@@H](Cc1ccccc1)C(=O)Nc1ccccc1NC(=O)CCCCCC(=O)Nc1cccc(Br)c1 [Phe-CC30•HCl],10 mg/mL,–
Cl.Cl.N[C@@H](Cc1c[nH]cn1)C(=O)Nc1ccccc1NC(=O)CCCCCC(=O)Nc1cccc(Br)c1 [His-CC30•2HCl],130 mg/mL,–
Cl.Cl.N=C(N)NCCC[C@H](N)C(=O)Nc1ccccc1NC(=O)CCCCCC(=O)Nc1cccc(Br)c1 [Arg-CC30•HCl],100 mg/mL,–
Cl.NCC(=O)Nc1ccccc1NC(=O)c1ccc(CNC(=O)OCc2cccnc2)cc1 [Gly-MS-275•HCl],68 mg/mL,–
Cl.Cl.NCCCC[C@H](N)C(=O)Nc1ccccc1NC(=O)CCCCCC(=O)Nc1ccccc1 [Lys-PAOA•2HCl],>100 mg/mL,–
Cl.NCC(=O)Nc1ccccc1NC(=O)c1ccc(CNc2nccc(-c3cccnc3)n2)cc1 [Gly-MGCD0103•HCl],>100 mg/mL,–
"Nc1ccccc1NC(=O)c1ccc(CNc2nccc(-c3cccnc3)n2)cc1 [MGCD0103, Mocetinostat, reference compound]",<1 mg/mL,–
CC(C)[C@H](N)C(=O)Nc1ccccc1NC(=O)CCCCCC(=O)Nc1ccccc1.Cl [Val-PAOA•HCl],>100 mg/mL,–
CC(O)C(N)C(=O)Nc1ccccc1NC(=O)c1ccc(CNC(=O)OCc2cccnc2)cc1.Cl (centres unmarked) [Thr-MS-275•HCl],>100 mg/mL,–
Cl.N[C@@H](CO)C(=O)Nc1ccccc1NC(=O)CCCCCC(=O)Nc1cccc(Br)c1 [Ser-CC30•HCl],10 mg/mL,–
Cl.Cl.NCCCCC(N)C(=O)Nc1ccccc1NC(=O)c1ccc(CNc2nccc(-c3cccnc3)n2)cc1 (centres unmarked) [Lys-MGCD0103•2HCl],>100 mg/mL,–
Nc1ccccc1NC(=O)CCCCCC(=O)Nc1cccc(Br)c1 [CC30],0.006 mg/mL,"HPLC-MS Peak Area of Parent Drug, CC30 ([2]; 37° C., 5 min): 880074; HPLC-MS Peak Area of Parent Drug, CC30 ([2]; 37° C., 10 min): 1131442; HPLC-MS Peak Area of Parent Drug, CC30 ([2]; 37° C., 30 min): 2039869; HPLC-MS Peak Area of Parent Drug, CC30 ([2]; 37° C., 60 min): 2762843; HPLC-MS Peak Area of Parent Drug, CC30 ([2]; 37° C., 120 min): 4280514; HPLC-MS Peak Area of Parent Drug, CC30 ([2]; 37° C., 240 min): 4438887; HPLC-MS Peak Area of Parent Drug, CC30 ([2]; time 0 min (on ice)): 617276; Time for which the parent drug was detected in the rat ([3]; after Lys-CC30.2HCl 2 mg/kg intravenous): at least 60 minutes; HPLC-MS Peak Area of Parent drug, CC30 in the rat ([3]; 0 min): 4792335; HPLC-MS Peak Area of Parent drug, CC30 in the rat ([3]; 2 min): 2994581; HPLC-MS Peak Area of Parent drug, CC30 in the rat ([3]; 5 min): 2162228; HPLC-MS Peak Area of Parent drug, CC30 in the rat ([3]; 10 min): 1225981; HPLC-MS Peak Area of Parent drug, CC30 in the rat ([3]; 15 min): 712348; HPLC-MS Peak Area of Parent drug, CC30 in the rat ([3]; 20 min): 425079; HPLC-MS Peak Area of Parent drug, CC30 in the rat ([3]; 30 min): 232663; HPLC-MS Peak Area of Parent drug, CC30 in the rat ([3]; 45 min): 199152; HPLC-MS Peak Area of Parent drug, CC30 in the rat ([3]; 60 min): 44686; Fraction that formed an inactive cyclized product [4]: 5%"
CC(C)[C@H](N)C(=O)Nc1ccccc1NC(=O)c1ccc(CNC(=O)OCc2cccnc2)cc1.Cl [Val-MS-275•HCl],>100 mg/mL,–
"Nc1ccccc1NC(=O)CCCCCC(=O)Nc1ccccc1 [PAOA, reference compound]",.033 mg/mL,–
Cl.NCC(=O)Nc1ccccc1NC(=O)CCCCCC(=O)Nc1cccc(Br)c1 [Gly-CC30•HCl],10 mg/mL,–
CC(C)C[C@H](N)C(=O)Nc1ccccc1NC(=O)CCCCCC(=O)Nc1cccc(Br)c1.Cl [Leu-CC30•HCl],50 mg/mL,–
N[C@@H](CCC(=O)[O-])C(=O)Nc1ccccc1NC(=O)CCCCCC(=O)Nc1cccc(Br)c1.[Na+] [CC30-Glu•Na],>100 mg/mL,–
